{"source": "paper PMC10746543", "about": "“Design principles for cyclin K molecular glue degraders” (Nature Chemical Biology, 2023)", "key": {"[1]": {"system": "cyclin K–eGFP degradation reporter", "experiment": "Cyclin K reporter stability analysis (dual-color cyclin K–eGFP reporter)", "type": "cell-based, human", "details": "for reporter assay signal (normalized): replicates", "how_it_was_run": "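Values reflect cyclin K–eGFP levels after a 5 h exposure, expressed as the green-to-red fluorescence ratio and scaled to three vehicle-treated controls. Measurements came from HEK293T–Cas9 reporter cells by flow cytometry.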"}, "CDK12–cyclin K and DDB1": {"target": "T1, CDK12–cyclin K and DDB1 (Homo sapiens, UniProt Q16531+Q9NYV4, K965R)", "T1 construct": "His6–CDK12 (a.a. 713–1,052); full-length or beta-propeller B domain deletion (ΔBPB: a.a. 396–705 deleted) constructs of His6–DDB1ΔBPB, StrepII–Avi–DDB1, or His6–Spy–DDB1; made in house; host or cells: Trichoplusia ni High Five insect cells (baculovirus)", "T1 sequence (Q9NYV4 713-1052 K965R)": "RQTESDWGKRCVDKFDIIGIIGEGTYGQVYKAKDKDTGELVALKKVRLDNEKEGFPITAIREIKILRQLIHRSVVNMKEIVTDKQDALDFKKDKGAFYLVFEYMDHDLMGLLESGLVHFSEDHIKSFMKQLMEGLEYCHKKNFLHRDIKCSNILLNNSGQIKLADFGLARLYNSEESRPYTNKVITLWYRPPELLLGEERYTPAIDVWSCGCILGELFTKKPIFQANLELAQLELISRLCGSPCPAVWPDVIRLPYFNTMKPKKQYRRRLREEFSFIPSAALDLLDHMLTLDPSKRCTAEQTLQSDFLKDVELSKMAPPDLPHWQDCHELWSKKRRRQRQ", "T1 sequence (O75909 1-267 partner)": "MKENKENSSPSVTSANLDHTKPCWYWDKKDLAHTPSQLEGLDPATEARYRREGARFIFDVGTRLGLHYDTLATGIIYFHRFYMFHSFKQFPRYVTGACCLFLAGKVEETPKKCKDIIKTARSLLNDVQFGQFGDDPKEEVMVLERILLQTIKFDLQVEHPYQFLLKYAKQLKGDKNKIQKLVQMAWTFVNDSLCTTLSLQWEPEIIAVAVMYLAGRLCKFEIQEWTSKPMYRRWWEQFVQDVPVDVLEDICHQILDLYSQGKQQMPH", "T1 sequence (Q16531 whole entry)": "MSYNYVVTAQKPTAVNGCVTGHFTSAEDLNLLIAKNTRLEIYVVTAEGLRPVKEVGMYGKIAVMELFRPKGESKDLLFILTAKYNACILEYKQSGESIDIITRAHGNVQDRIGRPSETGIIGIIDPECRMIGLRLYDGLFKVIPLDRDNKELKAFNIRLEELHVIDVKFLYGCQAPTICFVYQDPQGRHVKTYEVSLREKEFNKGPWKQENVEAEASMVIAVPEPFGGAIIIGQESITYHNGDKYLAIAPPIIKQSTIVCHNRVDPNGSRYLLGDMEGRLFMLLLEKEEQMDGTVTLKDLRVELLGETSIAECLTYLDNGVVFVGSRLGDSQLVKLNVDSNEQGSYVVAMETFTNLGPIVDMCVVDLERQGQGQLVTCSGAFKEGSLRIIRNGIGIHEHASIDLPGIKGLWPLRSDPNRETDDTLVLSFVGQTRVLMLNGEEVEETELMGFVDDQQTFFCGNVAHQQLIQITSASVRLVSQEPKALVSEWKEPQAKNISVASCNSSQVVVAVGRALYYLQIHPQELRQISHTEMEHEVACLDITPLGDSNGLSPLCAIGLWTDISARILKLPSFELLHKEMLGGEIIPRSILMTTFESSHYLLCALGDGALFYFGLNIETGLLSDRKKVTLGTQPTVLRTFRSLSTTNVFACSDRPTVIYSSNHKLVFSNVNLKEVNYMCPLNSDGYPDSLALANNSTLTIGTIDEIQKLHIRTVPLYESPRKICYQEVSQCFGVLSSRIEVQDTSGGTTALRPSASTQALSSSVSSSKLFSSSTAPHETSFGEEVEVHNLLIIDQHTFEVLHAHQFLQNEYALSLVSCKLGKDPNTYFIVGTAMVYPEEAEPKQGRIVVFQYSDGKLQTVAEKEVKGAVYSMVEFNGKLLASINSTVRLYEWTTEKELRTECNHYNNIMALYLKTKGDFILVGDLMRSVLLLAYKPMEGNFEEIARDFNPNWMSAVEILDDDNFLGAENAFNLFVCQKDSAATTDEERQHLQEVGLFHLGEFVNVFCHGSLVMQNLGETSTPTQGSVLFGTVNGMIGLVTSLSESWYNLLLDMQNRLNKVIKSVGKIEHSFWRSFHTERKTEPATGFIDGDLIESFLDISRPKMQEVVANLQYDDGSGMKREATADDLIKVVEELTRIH", "experiment": "TR-FRET ternary complex formation assay (compound titration)", "type": "binding", "details": "for TR-FRET signal at compound concentration: replicate titrations", "how_it_was_run": "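TR-FRET ratio 520/490 nm; 70 μs delay before read to suppress background.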"}, "[2]": {"details": "compound concentration 0.468 nM"}}, "note": "Several values for one entry are separate records, joined by “and”; a condition that tells them apart may be missing. Equal entries are not always repeated. Where two headings read alike, the source gives them in different places.", "data": [{"smiles": "CCC(CO)Nc1nc(NCc2ccc(-c3ccccn3)cc2)c2ncn(C(C)C)c2n1", "note": "(centres unmarked) [CR8, reference compound]", "values": [{"measurement": "reporter assay signal (normalized)", "setting": "[1]; 2 nM", "result": "0.8972 and 0.9042"}, {"measurement": "reporter assay signal (normalized)", "setting": "[1]; 3 nM", "result": "0.9215 and 0.8933"}, {"measurement": "reporter assay signal (normalized)", "setting": "[1]; 4.5 nM", "result": "0.9042 and 0.8823"}, {"measurement": "reporter assay signal (normalized)", "setting": "[1]; 7.68 nM", "result": "0.8744 and 0.8637"}, {"measurement": "reporter assay signal (normalized)", "setting": "[1]; 22.8 nM", "result": "0.7879 and 0.7853"}, {"measurement": "reporter assay signal (normalized)", "setting": "[1]; 34.2 nM", "result": "0.7383 and 0.7347"}, {"measurement": "reporter assay signal (normalized)", "setting": "[1]; 51.3 nM", "result": "0.6912 and 0.706"}, {"measurement": "reporter assay signal (normalized)", "setting": "[1]; 77 nM", "result": "0.6707 and 0.6773"}, {"measurement": "reporter assay signal (normalized)", "setting": "[1]; 260 nM", "result": "0.5992 and 0.6647"}, {"measurement": "reporter assay signal (normalized)", "setting": "[1]; 390 nM", "result": "0.6455 and 0.6368"}, {"measurement": "reporter assay signal (normalized)", "setting": "[1]; 585 nM", "result": "0.6031 and 0.6411"}, {"measurement": "reporter assay signal (normalized)", "setting": "[1]; 877 nM", "result": "0.5764 and 0.6073"}, {"measurement": "reporter assay signal (normalized)", "setting": "[1]; 1970 nM", "result": "0.6031 and 0.6571"}, {"measurement": "reporter assay signal (normalized)", "setting": "[1]; 2960 nM", "result": "0.6526 and 0.6453"}, {"measurement": "reporter assay signal (normalized)", "setting": "[1]; 4440 nM", "result": "0.6125 and 0.6655"}, {"measurement": "reporter assay signal (normalized)", "setting": "[1]; 6670 nM", "result": "0.6345 and 0.6267"}, {"measurement": "reporter assay signal (normalized)", "setting": "[1]; 10000 nM", "result": "0.6031 and 0.6495"}, {"measurement": "cyclin K reporter degradation, result in words", "setting": "[1]; HEK293T", "result": "potent degraders"}, {"measurement": "DC50", "setting": "[1]; Supplementary Fig. 4, HEK293T cycKeGFP reporter, 5h, n=2, read-out: DC50 printed on reporter plot", "result": 15, "unit": "nM"}, {"measurement": "DC50", "setting": "[1]; source data sheet correlations, read-out: DC50", "result": 24, "unit": "nM"}, {"measurement": "TR-FRET signal, individual replicate", "setting": "CDK12–cyclin K and DDB1; [2]", "result": "0.3192 and 0.333 and 0.3266 and 0.1622 and 0.1822 and 0.1545 and 0.1541"}, {"measurement": "TR-FRET signal at compound concentration 0.468 nM", "setting": "CDK12–cyclin K and DDB1; compound concentration 0.468 nM, raw replicate titration data", "result": "0.3192 and 0.333 and 0.3266 and 0.1622 and 0.1822 and 0.1545 and 0.1541 and 0.2195 and 0.2132 and 0.1986 and 0.2005 and 0.1618 and 0.1794 and 0.2366 and 0.2374 and 0.2769 and 0.2739 and 0.31"}, {"measurement": "TR-FRET signal at compound concentration 0.468 nM", "setting": "CDK12–cyclin K and DDB1; compound concentration 0.468 nM, raw titration data", "result": "0.3192 and 0.333 and 0.3266 and 0.1622 and 0.1822 and 0.1545 and 0.1541 and 0.2195 and 0.2132 and 0.1986 and 0.2005 and 0.1618 and 0.1794 and 0.2366 and 0.2374 and 0.2769 and 0.2739 and 0.31"}, {"measurement": "TR-FRET signal at compound concentration", "setting": "CDK12–cyclin K and DDB1; [2]", "result": "0.3192 and 0.333 and 0.3266 and 0.1622 and 0.1822 and 0.1545 and 0.1541"}, {"measurement": "TR-FRET signal, individual replicate", "setting": "CDK12–cyclin K and DDB1; compound concentration 2.16 nM", "result": "0.4573 and 0.4311 and 0.4305 and 0.2659 and 0.27 and 0.2373 and 0.2241"}, {"measurement": "TR-FRET signal at compound concentration 2.16 nM", "setting": "CDK12–cyclin K and DDB1; compound concentration 2.16 nM, raw replicate titration data", "result": "0.4573 and 0.4311 and 0.4305 and 0.2659 and 0.27 and 0.2373 and 0.2241 and 0.3119 and 0.3007 and 0.2892 and 0.2693 and 0.2407 and 0.2691 and 0.3343 and 0.3434 and 0.3949 and 0.3941 and 0.4244"}, {"measurement": "TR-FRET signal at compound concentration 2.16 nM", "setting": "CDK12–cyclin K and DDB1; compound concentration 2.16 nM, raw titration data", "result": "0.4573 and 0.4311 and 0.4305 and 0.2659 and 0.27 and 0.2373 and 0.2241 and 0.3119 and 0.3007 and 0.2892 and 0.2693 and 0.2407 and 0.2691 and 0.3343 and 0.3434 and 0.3949 and 0.3941 and 0.4244"}, {"measurement": "TR-FRET signal at compound concentration", "setting": "CDK12–cyclin K and DDB1; compound concentration 2.16 nM", "result": "0.4573 and 0.4311 and 0.4305 and 0.2659 and 0.27 and 0.2373 and 0.2241"}, {"measurement": "TR-FRET signal, individual replicate", "setting": "CDK12–cyclin K and DDB1; compound concentration 3.6 nM", "result": "0.7291 and 0.6022 and 0.6555 and 0.4637 and 0.4981 and 0.4299 and 0.4143 and 0.532"}, {"measurement": "TR-FRET signal at compound concentration 3.6 nM", "setting": "CDK12–cyclin K and DDB1; compound concentration 3.6 nM, raw replicate titration data", "result": "0.7291 and 0.6022 and 0.6555 and 0.4637 and 0.4981 and 0.4299 and 0.4143 and 0.532 and 0.5274 and 0.5046 and 0.4937 and 0.4479 and 0.5082 and 0.5733 and 0.5902 and 0.6794 and 0.6674 and 0.7173"}, {"measurement": "TR-FRET signal at compound concentration 3.6 nM", "setting": "CDK12–cyclin K and DDB1; compound concentration 3.6 nM, raw titration data", "result": "0.7291 and 0.6022 and 0.6555 and 0.4637 and 0.4981 and 0.4299 and 0.4143 and 0.532 and 0.5274 and 0.5046 and 0.4937 and 0.4479 and 0.5082 and 0.5733 and 0.5902 and 0.6794 and 0.6674 and 0.7173"}, {"measurement": "TR-FRET signal at compound concentration", "setting": "CDK12–cyclin K and DDB1; compound concentration 3.6 nM", "result": "0.7291 and 0.6022 and 0.6555 and 0.4637 and 0.4981 and 0.4299 and 0.4143 and 0.532"}]}]}
